These results are taken from publication PMC12284850, “In Silico Design of Antimicrobial Peptides against Carbapenem-Resistant Infections with Enhanced Activity by Nanoformulation” (ACS Applied Bio Materials, 2025).

Converted amounts (≈) assume the structure as drawn. Where two headings read alike, the source gives them in different places. Where a SMILES comes first, the peptide text is derived from it. Bridges are numbered along the chain shown (N, C = ends). [ ]: non-standard residue; d: D form. The star is where a group is joined. X1 = CC[C@H](C)CCCCC(=O)*; Dab = NCC[C@H](N)C(=O)O

One data set concerns E. coil ATCC25922. It counts as cell-based, E. coli. As for the experimental part: (§1) The broth microdilution procedure involves preparing CAMHB broth, a bacterial suspension adjusted to McFarland 0.5 (1.5 × 10^8 CFU/mL) and diluted 200×, and a drug solution at 2× the final target concentration. To achieve a 400× final bacterial dilution, add 100 μL of the drug at different doses to a 96-well plate, then 100 μL of the diluted bacterial culture. Measure the initial absorbance (0 h), incubate at 37 °C for 16–18 h, and measure the final absorbance. With no change in absorbance, the MIC signifies the absence of bacterial growth.

Another data set concerns S. aureus ATCC700698. The format is cell-based. As for the experimental part:
as §1

Data set [1] deals with K. pneumoniae ATCCC700603. It counts as cell-based. As for the experimental part:
as §1

For the next data set, the system named is E. faecalis ATCC 29212. The format is cell-based. As for the experimental part: as §1
The subject of data set [2] is A. baumannii ATCC BAA-747. It counts as cell-based. As for the experimental part:
as §1

For a further data set, the system named is S. aureus ATCC25923. The format is cell-based. As for the experimental part:
as §1

In data set [3] the test system is K. pneumoniae ATCC BAA-1705. The format is cell-based. As for the experimental part:
as §1

For the next data set, the system named is P. aeruginosa ATCC27853. It counts as cell-based. As for the experimental part:
as §1

In data set [4] the test system is A. baumannii ATCC19606. It counts as cell-based. As for the experimental part: as §1
The subject of a further data set is S. aureus ATCC33592. The format is cell-based. As for the experimental part: as §1
Another data set has as its system S. aureus ATCC29213. It counts as cell-based. As for the experimental part:
as §1

Data set [5] deals with A. baumannii ATCC19606. It counts as cell-based. To be noted: 37 °C, 18 h. The source says: The antimicrobial mechanism of colistin against bacteria has been attributed to the interaction between positively charged colistin and negatively charged outer membrane. Colistin could be displaced by divalent ions, such as calcium ions (Ca^2+) and magnesium (Mg^2+) in a competitively way. Moreover, elevated levels of divalent cations can enhance membrane rigidity, thereby reducing drug penetration and overall efficacy. To investigate the antimicrobial mechanism of T2–02, the competitive assays using divalent calcium ion were conducted. The elevated MICs of colistin were observed by adding Ca^2+ (2 to 32 μg/mL, Table S4).
As previously reported, the MIC values of T2–02 in conjunction with different chemical agents was estimated using the broth microdilution technique. Different concentrations of T2–02 were combined with Ca2+ separately, and the effect of chemical agents on T2–02 were tracked by observing variations in their MIC values. Each solution was added to a 96-well plate at the proper concentration in 100 μL volume. Next, 100 μL of the modified bacterial solution was added to each well. The absorbance was measured after incubation at 37 °C for 0 and 18 h.

The subject of data set [6] is human red blood cells (RBCs). Briefly: Hemolysis assay. The format is cell-based. To be noted: at 256 μg/mL, 2% hematocrit, 1 h, 37 °C, absorbance 540 nm, triplicate. As for the experimental part:
5 . Hemolysis profiles of colistin, free T2–02, and T2–02-loaded liposomes. (A) Colistin, (B) free T2–02 peptide, and (C) T2–02-loaded liposomes (T2–02 Lipo) were incubated with human red blood cells (RBCs) at various concentrations (0–256 μg/mL) for 1 hour at 37 °C.
The hemolytic potential of colistin, T2–02, and T2–02 Lipo were assessed using a modified erythrocyte lysis assay. Briefly, fresh erythrocytes were washed twice with phosphate-buffered saline (PBS) and resuspended in 5% glucose solution to prepare a 2% hematocrit suspension. Aliquots (100 μL) of each test compound at varying concentrations were incubated with the erythrocyte suspension at 37 °C with gentle agitation (120 rpm) for 1 h. After incubation, samples were centrifuged at 700 × g for 10 min, and the supernatant was transferred to a 96-well microplate. The release of hemoglobin was quantified by measuring the absorbance at 540 nm. The percentage of hemolysis was calculated as follows: Hemolysis (%) = (OD of test sample – OD of negative control)/(OD of positive control-OD of negative control) × 100%. Each experiment was performed in triplicate, and data were expressed as mean ± standard deviation (SD).

A further data set concerns HK-2 cells. Briefly: Cytotoxicity assay (MTT). It counts as cell-based. As for the experimental part: (§2) We tested the cytotoxicity of several antibiotic compounds, including peptides and nanoparticles, on the human embryonic kidney cell lines HEK-293, HK-2, and […]. The cells were stored in DMEM medium and incubated at 37 °C with 5% CO2 in a humidifying environment. Using the MTT (methylthiazolyldiphenyl-tetrazolium bromide) test, cell viability was evaluated. Following a 5 × 10^3 cell/mL seeding in 96-well plates, the cells were exposed to 100 μL of samples at varying concentrations (12.5–200 μM) during 72 h at 37 °C. Later, each well is loaded with MTT solution (5 mg/mL in PBS) at a volume of 10 μL. The plates were left in the dark for 4 h. After forming formazan crystals due to the action of mitochondrial reductases in living cells, the crystals were dissolved using a solubilizing solution (pH 4.7, 40% dimethylformamide, 2% glacial acetic acid, and 16% sodium dodecyl sulfate) were shaken at 150 rpm and incubated for an hour at 37 °C. Using graphical plot analysis, the IC50 value–the concentration that results in 50% cell death–was obtained by measuring the absorbance of the dissolved formazan at 570 nm. The average of three independent tests, each carried out in triplicate, was used to display the results.

The subject of the next data set is HEK293. The format is cell-based, human. To be noted: 72 h. As for the experimental part: as §2

In the case of `CC[C@H](C)[C@H](NC(=O)[C@H](CCC(=O)O)NC(=O)[C@H](CC(N)=O)NC(=O)[C@H](CC(C)C)NC(=O)[C@H](C)NC(=O)[C@H](C)NC(=O)[C@H](CCCCN)NC(=O)CNC(=O)[C@H](CCCNC(=N)N)NC(=O)[C@H](CCCNC(=N)N)NC(=O)[C@H](CCCCN)NC(=O)[C@H](CC(C)C)NC(=O)[C@H](CC(C)C)NC(=O)[C@H](CCCNC(=N)N)NC(=O)[C@H](CCCCN)NC(=O)[C@H](Cc1c[nH]c2ccccc12)NC(=O)[C@H](CC(C)C)NC(=O)[C@H](C)N)C(=O)N[C@@H](CC(N)=O)C(=O)N[C@@H](CCC(N)=O)C(=O)N[C@@H](CC(C)C)C(=O)O` [T2–01] (H-ALWKRLLKRRGKAALNEINQL-OH), the MIC in the data set with E. coil ATCC25922 was over 512 µg/mL; against S. aureus ATCC700698 it was over 512 µg/mL; in data set [1], over 512 µg/mL; with E. faecalis ATCC 29212 it was over 512 µg/mL; in data set [2] it was 64 µg/mL (≈ 25.7 µM); against S. aureus ATCC25923, over 512 µg/mL. Moreover, the MIC in data set [3] is over 512 µg/mL; in the data set with P. aeruginosa ATCC27853, 64 µg/mL (≈ 25.7 µM); against A. baumannii ATCC19606 [4], 64 µg/mL (≈ 25.7 µM); in the data set with S. aureus ATCC33592, over 512 µg/mL; against S. aureus ATCC29213, 512 µg/mL (≈ 205 µM).
As to `CC[C@H](C)CCCCC(=O)N[C@@H](CCN)C(=O)N[C@H](C(=O)N[C@@H](CCN)C(=O)N[C@H]1CCNC(=O)[C@H]([C@@H](C)O)NC(=O)[C@H](CCN)NC(=O)[C@H](CCN)NC(=O)[C@H](CC(C)C)NC(=O)[C@@H](CC(C)C)NC(=O)[C@H](CCN)NC1=O)[C@@H](C)O` [Colistin] (X1-[Dab]T[Dab][Dab][Dab][dL]L[Dab][Dab]T; lactam 4-C (inferred); N-terminus assumed), in the data set on A. baumannii ATCC19606 [5] (in the presence of 20 mM CaCl2, broth microdilution), the “Antibacterial activity (MIC), 20 mM CaCl2” value amounted to 32 µg/mL. Moreover, the “Antibacterial activity (MIC), Control” value in the data set with A. baumannii ATCC19606 [5] (without CaCl2, broth microdilution) was determined as 2 µg/mL. This compound showed a Hemolysis in [6] of about 45%. In the data set with HK-2 cells (ratio of HK-2 IC50 to that of polymyxin B), the “Cytotoxicity HK-2 related to PMB” value is reported as 2.6.
For the compound SPR 206 [reference compound], in the data set with HK-2 cells, the “Cytotoxicity HK-2 related to PMB” value is 11.6.
On to `CC[C@H](C)[C@H](NC(=O)[C@H](CC(=O)O)NC(=O)[C@H](CCCCN)NC(=O)[C@H](Cc1c[nH]c2ccccc12)NC(=O)[C@H](CC(C)C)NC(=O)[C@H](C)N)C(=O)N[C@@H](CC(C)C)C(=O)N[C@@H](CCCCN)C(=O)N[C@@H](CC(N)=O)C(=O)N[C@@H](C)C(=O)NCC(=O)N[C@@H](CCCCN)C(=O)N[C@@H](C)C(=O)N[C@@H](C)C(=O)N[C@@H](CC(C)C)C(=O)N[C@@H](CC(N)=O)C(=O)N[C@@H](CCC(=O)O)C(=O)N[C@H](C(=O)N[C@@H](CC(N)=O)C(=O)N[C@@H](CCC(N)=O)C(=O)N[C@@H](CC(C)C)C(=O)N[C@H](C(=O)N[C@@H](CC(N)=O)C(=O)NCC(=O)N[C@@H](CCCNC(=N)N)C(=O)NCC(=O)N[C@@H](CC(C)C)C(=O)N[C@@H](CCCCN)C(=O)N[C@@H](CCCCN)C(=O)O)C(C)C)[C@@H](C)CC` [seq ID-1, reference compound] (H-ALWKDILKNAGKAALNEINQLVNGRGLKK-OH), for which the MIC in the data set on E. coil ATCC25922 is 64 µg/mL (≈ 20.1 µM); in the data set on S. aureus ATCC700698 it was over 512 µg/mL; in [1] it was 128 µg/mL (≈ 40.3 µM); in the data set with E. faecalis ATCC 29212 it was 128 µg/mL (≈ 40.3 µM); in data set [2] it was 32 µg/mL (≈ 10.1 µM); against S. aureus ATCC25923 it was 128 µg/mL (≈ 40.3 µM). The MIC is 128 µg/mL (≈ 40.3 µM) in data set [3]; 32 µg/mL (≈ 10.1 µM) with P. aeruginosa ATCC27853; 32 µg/mL (≈ 10.1 µM) against A. baumannii ATCC19606 [4]; over 512 µg/mL in the data set on S. aureus ATCC33592; over 512 µg/mL in the data set with S. aureus ATCC29213.
As to `CC[C@H](C)[C@H](NC(=O)[C@H](CCC(=O)O)NC(=O)[C@H](CC(N)=O)NC(=O)[C@H](CC(C)C)NC(=O)[C@H](C)NC(=O)[C@H](C)NC(=O)[C@H](CCCCN)NC(=O)CNC(=O)[C@H](C)NC(=O)[C@H](CC(N)=O)NC(=O)[C@H](CCCCN)NC(=O)[C@H](CC(C)C)NC(=O)[C@@H](NC(=O)[C@H](CC(=O)O)NC(=O)[C@H](CCCCN)NC(=O)[C@H](Cc1c[nH]c2ccccc12)NC(=O)[C@H](CC(C)C)NC(=O)[C@H](C)N)[C@@H](C)CC)C(=O)N[C@@H](CC(N)=O)C(=O)N[C@@H](CCC(N)=O)C(=O)N[C@@H](CC(C)C)C(=O)O` [T2] (H-ALWKDILKNAGKAALNEINQL-OH), the MIC with E. coil ATCC25922 was over 1024 µg/mL; in the data set with S. aureus ATCC700698, over 512 µg/mL; in data set [1], over 512 µg/mL; against E. faecalis ATCC 29212 it was 1024 µg/mL (≈ 441 µM); in data set [2] it was 8 µg/mL (≈ 3.44 µM); against S. aureus ATCC25923, 1024 µg/mL (≈ 441 µM). The MIC in data set [3] was over 1024 µg/mL; against P. aeruginosa ATCC27853 it was 8 µg/mL (≈ 3.44 µM); against A. baumannii ATCC19606 [4], 8 µg/mL (≈ 3.44 µM); against S. aureus ATCC33592, over 512 µg/mL; with S. aureus ATCC29213 it was over 512 µg/mL. In addition, the “IC50 HEK293” value in the data set with HEK293 was over 1024 µg/mL.
